Here are results for 1 compound from article PMC10374545, “A small molecule inhibitor of PTP1B and PTPN2 enhances T cell anti-tumor immunity” (Nature Communications, 2023).

Assay [1] relates to STAT-5 Y694 phosphorylation in NK cells. Nature of the assay: IL-15-induced p-STAT-5 in NK cells. Type of assay: cell-based, mouse. The conditions noted are these: 0.1 or 1 (µM in figure, µg/ml in legend). The protocol: proliferation in vitro. a-b) NK cells from C57BL/6 male mice (n=3 per group) were expanded […]
µg/ml) or vehicle (1% v/v DMSO) in the absence of IL-15. a) NK cells were re-stimulated for 15 min with the indicated amounts of IL-15 and Y694 phosphorylated STAT-5 (p-STAT-5) mean fluorescence intensities (MFIs) determined by flow cytometry. b) Alternatively, NK cells were stained with carboxyfluorescein succinimidyl ester (CFSE, Invitrogen) and then re-stimulated with the indicated amounts of IL-15 for 96 h and NK cell proliferation (CFSE dilution) monitored by flow cytometry. c-d) NK cells from C57BL/6 male mice (n=3 per group) were expanded ex vivo in the presence of IL-15 and then pre-treated with CMP-182 (0.1 or 1 µg/ml) or vehicle in the absence of IL-15. NK cells were re-stimulated with either IL-12 (10 ng/ml) or IL-18 (100 ng/ml) or with α-NK1.1 or α-Ly49H for 4 h. NK cells were maintained in 10 ng/ml IL-15 throughout the 4 h incubation time. Percentages of c) IFN-γ+ and d) CD107A+ NK cells were determined by flow cytometry. In (a-d) results shown are means ± SEM and are representative of at least two independent experiments.

In the next assay the target is T1, MKP5 (Homo sapiens, UniProt Q9Y6W6).
T1 construct: MKP5, residues 320-647; made in house; host or cells: E. coli BL21(DE3)
As to the kind of experiment: PTP selectivity, DiFMUP assay. In kind it is biochemical. The conditions noted are these: DiFMUP at Km. The protocol: (§1) E. coli BL21(DE3) (Novagen) was used as an expression host and the induction of protein expression was carried out in LB media with 1 mM IPTG at 18 °C overnight. Cell pellets were stored at −80 °C for subsequent protein purification.
(§2) Protein purification of PTPs for enzymatic assays was conducted at 4 °C. Frozen cell pellets were lysed by sonication in 40 ml cold lysis buffer (50 mM Tris-HCl, pH 8.0, 150 mM NaCl, 5 mM imidazole, and 1 mM PMSF) per litre cell pellet. Cell lysates were clarified by centrifugation using a Beckman JA-18 rotor for 15 min at 5308 x g. The supernatant was incubated with HisPur Ni-NTA resin (Thermo Scientific) for 2 h and then packed onto a column and washed with 50 resin volume of buffer A (50 mM Tris-HCl, pH 8.0, 500 mM NaCl, 5 mM imidazole). The His-tagged proteins were eluted with Buffer B (50 mM Tris-HCl, pH=8.0, 500 mM NaCl, 300 mM imidazole,). Pooled His-protein-containing fractions were concentrated, loaded onto a HiLoad 26/600 Superdex 75 column (GE Healthcare Biosciences) and eluted with storage buffer (50 mM Tris-HCl, pH 8.0, 150 mM NaCl, 1 mM DTT, 10% glycerol). […] The protein was aliquoted and stored at −80 °C.
(§3) The PTP kinetic assay was modified from previous reported protocols[73],[74]. PTP activity was assayed using 6,8-Difluoro-4-Methylumbelliferyl Phosphate (DiFMUP, Invitrogen, cat# D6567,) as a substrate in 3,3-Dimethylglutaric acid (DMG) buffer (50 mM DMG, pH 7.0, 1 mM EDTA, 18 mM NaCl, 0.01% Triton X-100) at 25 °C. To determine the IC50 values, the assays were performed in 96-well plates (Corning Costar 3915). […] The final reaction volume is 200 µl. The reaction was allowed to proceed for 10 min and then quenched by the addition of 40 µl of a 160 µM solution of bpV(Phen) (Sigma-Aldrich, cat# SML0889). The fluorescence signal was measured using a CLARIOstar Plus Microplate Spectrophotometer (BMG Labtech) using excitation and emission wavelengths of 340 nm and 450 nm, respectively. Data were fitted using Prism GraphPad 9.2.0.
(§4) To determine the mode of inhibition, the reactions were initiated by the addition of enzyme (final concentration for PTP1B and PTPN2 was 0.05 nM) to the reaction mixtures (0.2 ml) containing various concentrations of DiFMUP with different concentrations of the inhibitor. The reaction was allowed to proceed for 10 min and then quenched by the addition of 40 µl of a 160 µM solution of bpV(Phen) (Sigma-Aldrich, cat# SML0889). The fluorescence signal was measured using a CLARIOstar Plus Microplate Spectrophotometer (BMG Labtech) using excitation and emission wavelength of 340 nm and 450 nm, respectively. Data were fitted using Prism GraphPad 9.2.0. For selectivity studies, the inhibition assay for other PTPs were performed under the same conditions as used for PTP1B and PTPN2 except with different DiFMUP concentration corresponding to the Km of the PTP studied.

A further assay concerns the target T2, PTP-PEST (Homo sapiens, UniProt Q05209).
T2 construct: PTP-PEST, residues 5-304; made in house; host or cells: E. coli BL21(DE3)
As to the kind of experiment: PTP selectivity, DiFMUP assay. The conditions noted are these: DiFMUP at Km. In kind it is biochemical. As to the method: as §1, §2, §3, §4

Another assay has as its target T3, VHZ (Homo sapiens, UniProt Q9BVJ7).
T3 construct: VHZ, residues 1-150; made in house; host or cells: E. coli BL21(DE3)
As to the kind of experiment: PTP selectivity, DiFMUP assay. Type of assay: biochemical. The conditions noted are these: DiFMUP at Km. As to the method: as §1, §2, §3, §4

A further assay addresses T4, LMPTP (Homo sapiens, UniProt P24666).
T4 construct: LMWPTP, residues 1-158; made in house; host or cells: E. coli BL21(DE3)
Nature of the assay: PTP selectivity, DiFMUP assay. Type of assay: biochemical. The conditions noted are these: DiFMUP at Km. The protocol: as §1, §2, §3, §4

Another assay concerns the target T5, SHP-2 (Homo sapiens, UniProt Q06124).
T5 construct: SHP-2, residues 224-528; made in house; host or cells: E. coli BL21(DE3)
Nature of the assay: PTP selectivity, DiFMUP assay. Type of assay: biochemical. The conditions noted are these: DiFMUP at Km. As to the method:
as §1, §2, §3, §4

For the next assay, the target named is T6, CDC14B (Homo sapiens, UniProt O60729).
T6 construct: CDC14B, residues 1-411; made in house; host or cells: E. coli BL21(DE3)
Nature of the assay: PTP selectivity, DiFMUP assay. In kind it is biochemical. The conditions noted are these: DiFMUP at Km. The protocol:
as §1, §2, §3, §4

Another assay addresses T7, Laforin (Homo sapiens, UniProt O95278).
T7 construct: made in house; host or cells: E. coli BL21(DE3)
Nature of the assay: PTP selectivity, DiFMUP assay. In kind it is biochemical. The conditions noted are these: DiFMUP at Km. As to the method:
as §1, §2, §3, §4

The subject of a further assay is OT-I CD8+ T cells. As to the kind of experiment: T cell proliferation (CTV dilution). In kind it is cell-based, mouse. Set-up: CTV, single replicates / CTV, mean of differences (D - C): unit not given here. The conditions noted are these: for CTV, single replicates: N4 0.5 nM, 1 μM, 3 days, Fig. 2C raw data. As to the method:
For analyzing cellular proliferation in vitro, single-cell suspensions from lymph nodes of wild type (OT-I;Ptpn2^fl/fl) or PTPN2-deficient (OT-I;Lck-Cre;Ptpn2^fl/fl) mice were stained with 2 μM CellTrace^TM Violet (CTV; Molecular Probes, Thermo Fisher Scientific) in PBS supplemented with 0.1% (v/v) FBS for 20 min at 37 °C. […] On day 3, OT-I cells were harvested and CTV dilution was monitored by flow cytometry. For cell number quantification, known numbers of Flow-Count Fluorospheres (Beckman Coulter) were added to samples before analysis.

Values joined by “and” are separate entries in the source; they are usually repeats but may differ in a detail not shown here. Equal values may be shown once.

T2 sequence (Q05209 5-304): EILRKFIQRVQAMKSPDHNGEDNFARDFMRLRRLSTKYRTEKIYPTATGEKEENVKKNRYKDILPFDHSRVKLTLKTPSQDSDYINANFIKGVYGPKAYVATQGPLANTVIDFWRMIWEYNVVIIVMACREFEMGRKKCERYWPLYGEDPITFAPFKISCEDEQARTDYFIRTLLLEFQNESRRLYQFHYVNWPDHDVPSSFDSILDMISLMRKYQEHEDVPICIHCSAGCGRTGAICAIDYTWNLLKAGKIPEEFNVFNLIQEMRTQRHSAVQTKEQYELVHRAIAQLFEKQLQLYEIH
T7 sequence (O95278 whole entry): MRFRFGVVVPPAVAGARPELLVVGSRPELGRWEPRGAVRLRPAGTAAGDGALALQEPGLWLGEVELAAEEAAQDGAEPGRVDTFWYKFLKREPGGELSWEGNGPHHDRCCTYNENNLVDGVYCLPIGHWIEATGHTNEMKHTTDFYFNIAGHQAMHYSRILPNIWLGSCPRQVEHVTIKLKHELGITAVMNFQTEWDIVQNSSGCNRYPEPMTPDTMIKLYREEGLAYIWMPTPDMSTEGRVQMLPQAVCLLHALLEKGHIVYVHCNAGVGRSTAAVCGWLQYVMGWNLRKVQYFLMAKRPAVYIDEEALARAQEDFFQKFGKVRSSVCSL
T5 sequence (Q06124 224-528): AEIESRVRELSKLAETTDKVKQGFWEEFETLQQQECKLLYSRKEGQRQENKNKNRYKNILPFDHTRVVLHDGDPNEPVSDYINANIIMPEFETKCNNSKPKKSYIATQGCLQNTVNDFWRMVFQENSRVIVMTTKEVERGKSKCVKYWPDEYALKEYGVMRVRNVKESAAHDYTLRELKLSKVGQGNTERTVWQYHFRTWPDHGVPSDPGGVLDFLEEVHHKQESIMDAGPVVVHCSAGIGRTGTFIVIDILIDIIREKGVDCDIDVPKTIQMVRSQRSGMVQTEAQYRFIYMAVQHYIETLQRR
T4 sequence (P24666 whole entry, the tested form may be a part): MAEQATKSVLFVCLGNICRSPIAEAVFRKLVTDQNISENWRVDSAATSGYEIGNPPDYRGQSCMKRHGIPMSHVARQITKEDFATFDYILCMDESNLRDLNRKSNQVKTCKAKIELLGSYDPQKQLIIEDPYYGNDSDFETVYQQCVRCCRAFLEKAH
T1 sequence (Q9Y6W6 320-467 limits assumed): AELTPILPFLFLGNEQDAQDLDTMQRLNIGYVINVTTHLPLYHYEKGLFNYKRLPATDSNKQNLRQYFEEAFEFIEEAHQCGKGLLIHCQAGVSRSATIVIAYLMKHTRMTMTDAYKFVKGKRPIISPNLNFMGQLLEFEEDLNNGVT
T6 sequence (O60729 1-411): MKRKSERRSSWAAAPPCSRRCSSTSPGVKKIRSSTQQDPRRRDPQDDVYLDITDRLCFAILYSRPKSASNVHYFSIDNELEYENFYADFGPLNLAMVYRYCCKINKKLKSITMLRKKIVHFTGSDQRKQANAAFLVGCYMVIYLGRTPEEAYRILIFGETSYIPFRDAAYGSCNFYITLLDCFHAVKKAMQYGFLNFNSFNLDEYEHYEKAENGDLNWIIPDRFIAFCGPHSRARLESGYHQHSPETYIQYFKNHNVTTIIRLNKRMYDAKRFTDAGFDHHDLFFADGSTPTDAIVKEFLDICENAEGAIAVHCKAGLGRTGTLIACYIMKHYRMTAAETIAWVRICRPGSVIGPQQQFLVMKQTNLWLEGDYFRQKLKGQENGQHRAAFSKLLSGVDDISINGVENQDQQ
T3 sequence (Q9BVJ7 whole entry, the tested form may be a part): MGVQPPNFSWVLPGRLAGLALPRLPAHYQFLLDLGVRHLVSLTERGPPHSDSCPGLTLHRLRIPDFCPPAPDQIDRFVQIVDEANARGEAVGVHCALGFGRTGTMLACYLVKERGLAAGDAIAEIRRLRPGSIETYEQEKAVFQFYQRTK

With `CC(C)(O)CCOc1ccc2cc(O)c(N3CC(=O)NS3(=O)=O)c(F)c2c1` [Compound 182, 5-(1-Fluoro-3-hydroxy-7-(3-hydroxy-3-methylbutoxy)naphthalen-2-yl)−1,2,5-thiadiazolidin-3-one 1,1-dioxide], the “IL-15-induced p-STAT-5 in NK cells” value in assay [1] was “did not enhance”. The IC50 at MKP5 is > 20 µM; against PTP-PEST, > 20 µM; on VHZ it was > 20 µM; at LMPTP, > 20 µM; on SHP-2, 19.2 ± 1.7 µM; against CDC14B, 5.2 ± 1.7 µM. On Laforin, the half-inhibitory concentration (IC50) is > 20 µM. Further, the “OT-I CD8+ T cell proliferation/expansion (CTV dilution)” value with OT-I CD8+ T cells is “marked increases”. In addition, the “CTV, mean of differences (D - C)” value in the assay on OT-I CD8+ T cells (2KI vs. 2K, day 3, 4 pairs, Fig. 2C) is on record as 23.93. Besides, the “CTV, single replicates” value in the assay with OT-I CD8+ T cells (Lck-Cre;Ptpn2fl/fl (2K) OT-I cells, listed as 2KI) is 82.8 and 89.7 and 89.6 and 74.7; in the assay with OT-I CD8+ T cells (wild type OT-I cells, listed as WTI) it was 38.7 and 58 and 84.3 and 62.7. For the same compound, in the assay with OT-I CD8+ T cells (WTI vs. WT, day 3, 4 pairs, Fig. 2C), the “CTV, mean of differences (B - A)” value stood at 27.74.
